In patent publication US20240197666A1, “DITERPENOID COMPOUNDS THAT ACT ON PROTEIN KINASE C (PKC)” (K-Gen Therapeutics, Inc., priority 2021, published 2024):
Read-outs that look alike come from different tables or passages of the source.

Experiments:
[1] = target: T1, C1b domain of human PKCδ (Homo sapiens, UniProt Q05655); assay: biochemical; format: binding; settings: 3H-PDBu competition
T1 construct: Genes encoding C1b domains of human PKCα, δ, ε, θ, and PKD1 (PKCμ) were synthesized; made in house; host or cells: E. coli BL21(DE3)
Experimental: (§1) Compounds described in this disclosure were tested for binding affinity to C1b domain of PKC isoforms. Compound binding affinity to C1b domain of PKC isoforms was derived from competitive binding assay using radioactive tracer ^3H-PDBu and recombinant GST-C1b or full-length of human PKC proteins based on modified procedures from Methods in Molecular Biology, vol.
(§2) Genes encoding C1b domains of human PKCα, δ, ε, θ, and PKD1 (PKCμ) were synthesized and inserted into pGEX-2TK or pGEX-4T1 vectors for expression and production of GST-C1b proteins in E. coli BL21(DE3) via IPTG induction. The target proteins were purified by glutathione sepharose 4B and followed by ion exchange chromatography if needed to achieve purity >70%. Aliquots of the purified proteins were stored at −80 degree for binding assay (storage buffer: 20 mM Tris pH 8.0, 200 mM NaCl, 10% glycerol, 1 mM DTT).
(§3) The plate was incubated at 37° C. on a shaker at 300 rpm for 10 minutes and then put on ice for 20 minutes. […] The bottom of the filter plate was sealed and 50 μL of MicroScint-20 (PerkinElmer) cocktail was added to each well. ^3H-PDBu trapped in each well was counted using PerkinElmer MicroBeta2 Reader. Data were analyzed using GraphPad Prism5 with the model “log(inhibitor) vs. response-variable slope” to fit the IC50, and then IC50 was transformed to Ki using Cheng-Prusoff equation: Ki=IC50/(1+added radio ligand/Kd). Kd is the binding affinity of each protein preparation to ^3H-PDBu, determined experimentally.

[2] = tested on: A549 cell line; assay: Proliferation of A549 (CellTiter Glo); format: cell-based; settings: Homo sapiens, read-out: IC50 μM (A549 Cell Line)
Experimental: (§4) The diterpenoid compounds were tested in A549, a non-small cell lung cancer cell line harboring a K-Ras activating mutation. Briefly, A549 cells at a density of 1,000 cells/well were seeded in 96-well plates and incubated at 37° C. for 24 hours. A series of different concentrations of compound stocks (500×) were prepared by 3-fold serial dilution in DMSO. These compounds were further diluted in culture media and then added to cells so that the final DMSO concentration was not exceeding 0.25%. After 96 hours of incubation, 50 μL of CellTiter Glo reagent (Promega) was added to each well and luminescence was measured after 10 minutes using EnVision (PerkinElmer). Luminescence from cells treated with DMSO alone was set as Max and % of inhibition was calculated as follows: Inhibition %=(Max-Sample value)/Max×100. Data was analyzed using XL-fit software (ID Business Solutions Ltd.) and IC50, relative IC50, and % of top inhibition was calculated. Some of the compounds in this disclosure were very potent in blocking proliferation of A549 lung cancer cells at low nM range. In addition, potency of inhibiting A549 proliferation correlated well with its binding affinity to PKCs for this series of compounds. In other words, higher affinity binders had stronger inhibitory effects on A549 proliferation. This further support the notion that activation, rather than inhibition, of certain PKC isoforms is required to block proliferation of cancer cells, some of which may harbor K-Ras mutations. This is in sharp contrast to previous literature and common belief that inhibition of PKC is necessary to block cancer cell growth (Kang, 2014, New Journal of Science, 2014:1-36). Data presented here is in agreement with recent findings that many loss-of-function but not gain-of-function mutations of PKC isoforms have been identified in many human cancers (Antal et al., 2015, Cell, 160:489-502).

[3] = tested on: NFκB-driven transcription in HeLa-NFκB luciferase reporter cell line; assay: NFκB luciferase reporter assay; settings: for EC50: Homo sapiens, HeLa, 16 h, read-out: NFκB-luc HeLa cells EC50 (μM); for block of NFκB activation induced by PKC activator compounds: PKC inhibitor added at the same time as the PKC activator compounds
[4] = tested on: HL-60 (Leukemia); assay: Proliferation of HL-60; format: cell-based
Experimental: as §4
(§5) The compounds in this disclosure were tested for their potency in blocking proliferation of a few other cancer cells lines, including K-Ras mutant pancreatic cell lines Panc2.13 and KP-4, leukemia cell line HL-60, and lymphoma cell lines Namalwa and Mino. Similar procedures as in Example 67 were followed. Initial cell numbers seeded in 96-well plates were different for different cell lines: 3000 cells/well for Panc2.13; 800-1000 cells/well for KP-4; 5000 cells/well for HL-60; 5000-10000 cells/well for Namalwa and Mino. A ratio of (IC50 of K101)/(IC50 of compound) (data in parenthesis in Table 5) was used to normalize the compound potency from different assay batches to a common comparator K101.

[5] = tested on: Namalwa (Lymphoma); assay: Proliferation of Namalwa; format: cell-based; settings: for IC50: read-out: IC50 Namalwa (Lymphoma)
Experimental: as §4, §5

[6] = tested on: Mino (Lymphoma); assay: Proliferation of Mino; format: cell-based
Experimental: as §4, §5

[7] = target: T2, C1b domain of human PKCε (Homo sapiens, UniProt Q02156); assay: biochemical; format: binding; settings: 3H-PDBu competition
T2 construct: Genes encoding C1b domains of human PKCα, δ, ε, θ, and PKD1 (PKCμ) were synthesized; made in house; host or cells: E. coli BL21(DE3)
Experimental: as §1, §2, §3

[8] = tested on: Hela cells; assay: In vitro scratch wound healing assay; format: cell-based; settings: 24h
Experimental: Scratch wound healing assay creates a gap by scratching a confluent monolayer of cells to mimic a wound and then measures the ability of cells to fill up the gap (wound) in the presence of DMSO or test compounds. 1.2-1.5×10^5 Hela cells in 1 mL media RPMI-1640 with 10% FBS were seeded in 24-well plates. Cells were starved for overnight in the same media without FBS when cells became confluent. After starvation, a scratch was made in the middle of the well and the plates were washed three times to remove detached cells. DMSO or different concentrations of compounds were diluted and added to the cells. The assay plates were put into Incucyte S3 and scanned with 4× scanner setting regularly. The imaging results were exported and the wound area was analyzed by ImageJ. Wound healing or closure was calculated by the following formula: wound healing %=(wound area at 0h−wound area at 24h)/wound area 0h*100%. Relative wound healing was calculated by dividing wound healing % of compound treatment to that of DMSO*100%.

[9] = Homo sapiens, HL-60, read-out: IC50 HL-60 (Leukemia)
[10] = Homo sapiens, MINO, read-out: IC50 Mino (Lymphoma)

T1 sequence (Q05655 230-280 limits assumed): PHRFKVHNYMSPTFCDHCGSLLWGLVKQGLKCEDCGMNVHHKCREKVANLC
T2 sequence (Q02156 242-292 limits assumed): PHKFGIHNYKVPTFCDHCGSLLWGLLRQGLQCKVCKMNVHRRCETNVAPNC

## CN[C@@H](CC1CCCCC1)C(=O)O[C@@]12C[C@@H](C)[C@@]3(O)[C@@H](C=C(CO)C[C@]4(O)C(=O)C(C)=C[C@@H]34)[C@@H]1C2(C)C
[1]
  Ki: 0.01 to 0.03 µM
[2]; A549, 96 h
  IC50: 0.2 to 0.6 µM

## CC1=C[C@H]2[C@@]3(O)[C@H](C)C[C@]4(OC(=O)[C@@H](N)Cc5c[nH]c6ccccc56)[C@H]([C@@H]3C=C(CO)C[C@]2(O)C1=O)C4(C)C
[1]
  Ki: 0.01 to 0.03 µM
[2]; A549, 96 h
  IC50: 10 to 30 µM

## CC1=C[C@H]2[C@@]3(O)[C@H](C)C[C@]4(OC(=O)CCCc5ccccc5)[C@H]([C@@H]3C=C(CO)C[C@]2(O)C1=O)C4(C)C
[3]
  EC50: 0.01 to 0.03 µM
[4]
  ratio (IC50 of K101)/(IC50 of compound) HL-60: 32.7
[4]; [9]
  IC50: 0.01 to 0.03 µM
[5]
  ratio (IC50 of K101)/(IC50 of compound) Namalwa: 8.63
  IC50: 0.001 to 0.01 µM
[2]; A549, 96 h
  IC50: 0.01 to 0.03 µM
[6]
  ratio (IC50 of K101)/(IC50 of compound) Mino: 37.5
[6]; [10]
  IC50: 0.001 to 0.01 µM

## CCCC[C@H](N)C(=O)O[C@@]12C[C@@H](C)[C@@]3(O)[C@@H](C=C(CO)C[C@]4(O)C(=O)C(C)=C[C@@H]34)[C@@H]1C2(C)C
[1]
  Ki: 0.01 to 0.03 µM
[2]; A549, 96 h
  IC50: 0.6 to 1 µM

## CC1=C[C@H]2[C@@]3(O)[C@H](C)C[C@]4(OC(=O)[C@H](N)CC5CCCCC5)[C@H]([C@@H]3C=C(CO)C[C@]2(O)C1=O)C4(C)C
[1]
  Ki: 0.01 to 0.03 µM
[2]; A549, 96 h
  IC50: 0.2 to 0.6 µM

## Cn1c2ccccc2c2c3c(c4c5ccccc5n(CCC#N)c4c21)CNC3=O [Compound G66976, G66976, reference compound]
[3]
  block of NFκB activation induced by PKC activator compounds: unable to block

## CC1=C[C@H]2[C@@]3(O)[C@H](C)C[C@]4(OC(=O)C[C@@H](N)CCc5ccccc5)[C@H]([C@@H]3C=C(CO)C[C@]2(O)C1=O)C4(C)C
[1]
  Ki: 0.01 to 0.03 µM
[2]; A549, 96 h
  IC50: 0.6 to 1 µM

## COc1ccc2c(c1)c(C1=C(c3c[nH]c4ccccc34)C(=O)NC1=O)cn2CCCN(C)C [Gö6983, reference compound]
[3]
  block of NFκB activation induced by PKC activator compounds: completely block

## CC1=C[C@H]2[C@@]3(O)[C@H](C)C[C@]4(OC(=O)C[C@H](N)Cc5ccccc5)[C@H]([C@@H]3C=C(CO)C[C@]2(O)C1=O)C4(C)C
[1]
  Ki: 0.01 to 0.03 µM
[2]; A549, 96 h
  IC50: 1 to 2 µM

## CC1=C[C@H]2[C@@]3(O)[C@H](C)C[C@]4(OC(=O)[C@@H](N)CC(C)(C)C)[C@H]([C@@H]3C=C(CO)C[C@]2(O)C1=O)C4(C)C
[1]
  Ki: 0.01 to 0.03 µM
[2]; A549, 96 h
  IC50: 0.2 to 0.6 µM

## CC1=C[C@H]2[C@@]3(O)[C@H](C)C[C@]4(OC(=O)CCc5ccc(C(F)(F)F)cc5)[C@H]([C@@H]3C=C(CO)C[C@]2(O)C1=O)C4(C)C
[3]
  EC50: 0.01 to 0.03 µM
[4]
  ratio (IC50 of K101)/(IC50 of compound) HL-60: 72
[4]; [9]
  IC50: 0.001 to 0.01 µM
[5]
  ratio (IC50 of K101)/(IC50 of compound) Namalwa: 13.8
  IC50: 0.001 to 0.01 µM
[2]; A549, 96 h
  IC50: 0.01 to 0.03 µM
[6]
  ratio (IC50 of K101)/(IC50 of compound) Mino: 75
[6]; [10]
  IC50: < 0.001 µM

## CC1=C[C@H]2[C@@]3(O)[C@H](C)C[C@]4(OC(=O)C[C@@H](N)c5ccccc5)[C@H]([C@@H]3C=C(CO)C[C@]2(O)C1=O)C4(C)C
[2]; A549, 96 h
  IC50: 2 to 5 µM

## CC1=C[C@H]2[C@@]3(O)[C@H](C)C[C@]4(OC(=O)CCc5cnn(C)c5)[C@H]([C@@H]3C=C(CO)C[C@]2(O)C1=O)C4(C)C
[2]; A549, 96 h
  IC50: 2 to 5 µM

## CC1=C[C@H]2[C@@]3(O)[C@H](C)C[C@]4(OC(=O)[C@@H](N)CCCCCCCCc5ccccc5)[C@H]([C@@H]3C=C(CO)C[C@]2(O)C1=O)C4(C)C
[1]
  Ki: 0.01 to 0.03 µM
[2]; A549, 96 h
  IC50: 0.001 to 0.01 µM

## CN1CCN(c2nc(C3=C(c4c[nH]c5ccccc45)C(=O)NC3=O)c3ccccc3n2)CC1 [Sotrastaurin, reference compound]
[3]
  block of NFκB activation induced by PKC activator compounds: completely block

## CC1=C[C@H]2[C@@]3(O)[C@H](C)C[C@]4(OC(=O)C5CC6(CNC6)C5)[C@H]([C@@H]3C=C(CO)C[C@]2(O)C1=O)C4(C)C
[2]; A549, 96 h
  IC50: > 30 µM

## CC1=C[C@H]2[C@@]3(O)[C@H](C)C[C@]4(OC(=O)Cc5ccccc5)[C@H]([C@@H]3C=C(CO)C[C@]2(O)C1=O)C4(C)C
[7]
  Ki: 0.01 to 0.03 µM
[3]
  EC50: 0.03 to 0.06 µM
[4]
  ratio (IC50 of K101)/(IC50 of compound) HL-60: 18
[4]; Homo sapiens, HL-60; read-out: IC50 HL-60 (Leukemia)
  IC50: 0.01 to 0.03 µM
[5]
  ratio (IC50 of K101)/(IC50 of compound) Namalwa: 3.29
  IC50: 0.01 to 0.03 µM
[2]; A549, 96 hours, CellTiter Glo
  IC50: 0.03 to 0.06 µM
[6]
  ratio (IC50 of K101)/(IC50 of compound) Mino: 15.6
[6]; Homo sapiens, MINO; read-out: IC50 Mino (Lymphoma)
  IC50: 0.001 to 0.01 µM

## CC1=C[C@H]2[C@@]3(O)[C@H](C)C[C@]4(OC(=O)[C@@H](N)C(C)(C)c5ccc(C(F)(F)F)cc5)[C@H]([C@@H]3C=C(CO)C[C@]2(O)C1=O)C4(C)C
[7]
  Ki: 0.01 to 0.03 µM
[3]
  EC50: 0.06 to 0.1 µM
[4]
  ratio (IC50 of K101)/(IC50 of compound) HL-60: 12
[4]; [9]
  IC50: 0.01 to 0.03 µM
[5]
  ratio (IC50 of K101)/(IC50 of compound) Namalwa: 3.5
  IC50: 0.01 to 0.03 µM
[8]; 20 nM
  Relative wound healing to control (%): 213%
[8]; 60 nM
  Relative wound healing to control (%): 134%
[8]; 200 nM
  Relative wound healing to control (%): 201%
[2]; A549, 96 h
  IC50: 0.03 to 0.06 µM
[6]
  ratio (IC50 of K101)/(IC50 of compound) Mino: 15.7
[6]; [10]
  IC50: 0.001 to 0.01 µM

## CC1=C[C@H]2[C@@]3(O)[C@H](C)C[C@]4(OC(=O)[C@@H](N)CC5CC5)[C@H]([C@@H]3C=C(CO)C[C@]2(O)C1=O)C4(C)C
[1]
  Ki: 0.06 to 0.1 µM
[2]; A549, 96 h
  IC50: 2 to 5 µM
